Assay results reported in patent US9458463B2, “Method for treatment of diabetes by a small molecule inhibitor for GRK5” (MAX-PLANCK-GESELLSCHAFT ZUR FÖRDERUNG DER WISSENSCHAFTEN …, priority 2010, dated 2016).
pIC50: −log10 of the molar value.

Assays:
[1] = test system: HepG2 cells; assay: Cell viability assay (CellTiter-Glo / automated cell number) in HepG2; type: cell-based; settings: Homo sapiens, read-out: Inhibition of cell viability IC50
Source text: (§1) Luminescent cell viability assay. For the detection of cell viability, the CellTiter-Glo® Luminescent Cell Viability Assay was used. This test is based on a luciferase reaction to measure the amount of ATP in cells. This correlates directly with the number of cells and their viability because cells lose the ability to synthesize ATP directly after e.g. loss of membrane integrity or a cytotoxic event. The protocol was adapted to 24 well plates and to the different culture conditions resulting in a standardized protocol which is described below. Cell lysis, inhibition of endogenous ATPases and detection of ATP was performed by adding the CellTiter-Glo® Reagent to the culture wells. Per well, 100 μl reagent were mixed with the same volume of proper Medium. Lysing of the cells took place by 10 min incubation at RT and moderate shaking. Three times 50 μl cell lysate was transferred into a white 96 well plate to eliminate stray light, and the bioluminescence was measured.
(§2) In a 96 well dish 10000 cells per well (100 μl) were seed and treated for 72 h. At the end of the treatment, cells were fixed with 4% paraformaldehyde in PBS for 15 minutes, permeabilized with 0.1% triton-X 100 in PBS for 15 minutes and stained with Hoechst 33342 (20 μg/ml in PBS; dilute from 20 mg/ml stock) directly to cells in 100 μl medium in PBS for 30 minutes at 37° C. Stained cells were imaged with a Cellomics ArrayScan VT I automated microscope. Images were analyzed with vHCS Scan Target Activation software v5.1.2 to identify apoptotic cells. Six fields per well of a 96 well plate we re-imaged at 10× magnification. First, cells were identified by their nuclei staining in channel 1 of Cellomics and their amount. Staining intensity was plotted and compared between NT controls and compound treated cells. Finally, data was obtained using vHCS View software v 5.1.2 and the numbers of cells present in the 96 well were identified as “Valid Object Count” whereas the percentage of infection was determined as “% selected”. IC50 values have been calculated accordingly.

[2] = test system: 3T3-L1 cells; assay: Cell viability assay (CellTiter-Glo / automated cell number) in 3T3-L1; type: cell-based; settings: Mus musculus, read-out: Inhibition of cell viability IC50
Source text: as §1, §2

[3] = target: T1, full length GRK5 (Homo sapiens, UniProt P34947); assay: GRK5 kinase activity assay, ADP Glo Kinase Assay technology (Promega); type: biochemical; settings: group II; ADP Glo Kinase Assay (Table 9-B)
T1 construct: 6/2 fold concentrated full length GRK5 (Millipore, #14-714) in reaction buffer; purchased Millipore 14-714
Procedure, shortened: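 Casein (10 μM) phosphorylation with 100 μM ATP in 20 mM MES pH 6.0, 1 mM DTT, 10 mM MgCl2, 0.01% Tween20, 120 min at room temperature; ADP quantified by ADP-Glo luminescence.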

[4] = test system: C2C12 cells; assay: Cell viability assay (CellTiter-Glo / automated cell number) in C2C12; type: cell-based; settings: Mus musculus, read-out: Inhibition of cell viability IC50
Source text: as §1, §2

[5] = test system: beta-TC6 insulinoma cells; assay: Insulin release by beta-TC6 cells, rat/mouse insulin ELISA, high glucose; type: cell-based; settings: Mus musculus, Beta-TC6, 2 h, group II; 5 μM, 2 h, high glucose (4.5 g/L); % increase in regard to DMSO control (set at 0%)
Procedure: (§3) Release of insulin was detected using a rat/mouse insulin ELISA.
After incubation, the supernatant of the beta-TC6 insulinoma cells was diluted 1:20. The insulin release was measured with rat/mouse insulin ELISA (Merck Millipore Darmstadt, Cat. # EZRMI-13K) by following the manufacture protocol. The enzyme activity of the horseradish peroxidase of the immobilized biotinylated antibodies was monitored spectrophotometrically by the increased absorbency at 490 nm, and corrected by the absorbency at 610 nm.
as §3
The effect on the insulin release of each kinase depletion was monitored by using a rat/mouse insulin ELISA.
For the validation of the negative modulating kinases SCYL1, GRK5, and ADCK1, the target genes were depleted using four different siRNA-sequences each (FIG. 2A-D). The gene-depletion was measured via mRNA-levels after 72 hours while the insulin release was measured using a rat/mouse insulin ELISA after two hours incubation.

[6] = test system: beta TC6 cells; assay: Cell viability assay (CellTiter-Glo / automated cell number) in beta TC6; type: cell-based; settings: Mus musculus, read-out: Inhibition of cell viability IC50
Source text: as §1, §2

[7] = target: T2, GRK5 (Homo sapiens, UniProt P34947); assay: Millipore KinaseProfiler radiometric filtration binding assay; type: biochemical; settings: group II; Millipore KinaseProfiler (Table 10)
T2 construct: purchased Millipore (KinaseProfiler service)
Procedure: (§4) As alternative, IC50 values are determined by a radiometric based filtration binding assay, namely Millipore KinaseProfiler™. GRK5 is incubated with 8 mM MOPS pH7.0, 0.2 mM EDTA, 2 mg/mL casein, 10 mM MgAcetate and […] (specific activity approx. 500 cpm/pmol, concentration as required). The reaction is initiated by the addition of the MgATP mix. After incubation for 40 minutes at room temperature, the reaction is stopped by the addition of 3% phosphoric acid solution. 10 μL of the reaction is then spotted onto a P30 filtermat and washed three times for 5 minutes in 75 mM phosphoric acid and once in methanol prior to drying and scintillation counting.
as §4, with “IC50” for “As alternative, IC50”, “pH 7.0,” for “pH7.0,”

T1 sequence (P34947 whole entry): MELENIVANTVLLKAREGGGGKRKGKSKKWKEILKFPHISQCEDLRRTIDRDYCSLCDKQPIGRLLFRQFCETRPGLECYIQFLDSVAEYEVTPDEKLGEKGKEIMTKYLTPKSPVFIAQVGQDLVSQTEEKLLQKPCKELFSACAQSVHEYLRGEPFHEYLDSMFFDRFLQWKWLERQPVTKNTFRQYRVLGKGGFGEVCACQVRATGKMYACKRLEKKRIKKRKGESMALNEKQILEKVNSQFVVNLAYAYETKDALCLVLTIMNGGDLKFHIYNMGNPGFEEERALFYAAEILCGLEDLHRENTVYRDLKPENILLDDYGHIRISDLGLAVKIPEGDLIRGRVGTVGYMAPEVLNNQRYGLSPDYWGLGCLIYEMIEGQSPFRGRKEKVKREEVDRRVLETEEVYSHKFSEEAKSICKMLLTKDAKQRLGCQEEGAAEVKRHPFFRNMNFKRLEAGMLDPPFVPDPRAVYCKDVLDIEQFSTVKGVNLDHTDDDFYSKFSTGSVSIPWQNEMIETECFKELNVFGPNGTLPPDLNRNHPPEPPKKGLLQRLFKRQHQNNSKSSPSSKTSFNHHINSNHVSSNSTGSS
T2 sequence (P34947 whole entry): as above

| Structure (SMILES) | pIC50 [1] | pIC50 [2] | pIC50 [3] | pIC50 [4] | activation at 5 µM [5] [%] | pIC50 [6] | pIC50 [7] |
| --- | --- | --- | --- | --- | --- | --- | --- |
| CCC(NC(=O)c1ccc2c(c1)/C(=C/c1[nH]c(C)c(C(=O)NCCN3CCCC3)c1C)C(=O)N2)c1cccc(Cl)c1 (stereo not shown) [II.11, (3Z)-N-[1-(3-chlorophenyl)propyl]-3-({3,5-dimethyl-4-[(2-pyrrolidin-1-ylethyl)carbamoyl]-1H-pyrrol-2-yl}methylene)-2-oxoindoline-5-carboxamide] | 6.10 | < 5.00 | 6.00 to 7.00 | 5.47 | 96 | 6.02 |  |
| Cc1[nH]c(/C=C2\C(=O)Nc3ccc(C(=O)N[C@H](C)c4ccccc4)cc32)c(C)c1C(=O)N1CCC[C@H]1CN1CCCC1 [II.16, (3Z)-3-[(3,5-dimethyl-4-{[(2S)-2-(pyrrolidin-1-ylmethyl)pyrrolidin-1-yl]carbonyl}-1H-pyrrol-2-yl)methylene]-2-oxo-N-[(1R)-1-phenylethyl]indoline-5-carboxamide] |  |  |  |  |  |  | 6.00 to 7.00 |
| Cc1[nH]c(/C=C2\C(=O)Nc3ccc(C(=O)N[C@@H]4CCc5ccccc54)cc32)c(C)c1C(=O)N1CCC[C@@H]1CN1CCCC1 [II.30, (3Z)-N-[(1R)-2,3-dihydro-1H-inden-1-yl]-3-[(3,5-dimethyl-4-{[(2R)-2-(pyrrolidin-1-ylmethyl)pyrrolidin-1-yl]carbonyl}-1H-pyrrol-2-yl)methylene]-2-oxoindoline-5-carboxamide] | 5.55 | 6.09 | 5.00 to 5.70 | < 5.00 |  | 5.77 | 5.00 to 5.70 |
| Cc1ccc([C@@H](C)NC(=O)c2ccc3c(c2)/C(=C/c2[nH]c(C)c(C(=O)N4CCN(C)CC4)c2C)C(=O)N3)cc1 [II.32, (3Z)-3-({3,5-dimethyl-4-[(4-methylpiperazin-1-yl)carbonyl]-1H-pyrrol-2-yl}methylene)-N-[(1R)-1-(4-methylphenyl)ethyl]-2-oxoindoline-5-carboxamide] | 5.91 | 6.15 | 5.70 to 6.00 | 5.37 | 143 | 5.80 |  |
| CC[C@@H](NC(=O)c1ccc2c(c1)/C(=C/c1[nH]c(C)c(C(=O)N3CCC[C@H]3CN3CCCC3)c1C)C(=O)N2)c1ccccc1 [II.46, (3Z)-3-[(3,5-dimethyl-4-{[(2S)-2-(pyrrolidin-1-ylmethyl)pyrrolidin-1-yl]carbonyl}-1H-pyrrol-2-yl)methylene]-2-oxo-N-[(1R)-1-phenylpropyl]indoline-5-carboxamide] | 6.11 | 6.49 | > 7.00 | 5.05 |  | 6.66 | > 7.00 |
| CC[C@H](NC(=O)c1ccc2c(c1)/C(=C/c1[nH]c(C)c(C(=O)N3CCC[C@H]3CN3CCCC3)c1C)C(=O)N2)c1ccccc1 [II.47, (3Z)-3-[(3,5-dimethyl-4-{[(2S)-2-(pyrrolidin-1-ylmethyl)pyrrolidin-1-yl]carbonyl}-1H-pyrrol-2-yl)methylene]-2-oxo-N-[(1S)-1-phenylpropyl]indoline-5-carboxamide] | 5.49 | 5.87 | 5.00 to 5.70 | < 5.00 |  | 5.66 | 5.00 to 5.70 |
| CC[C@@H](NC(=O)c1ccc2c(c1)/C(=C/c1[nH]c(C)c(C(=O)N3CCC[C@@H]3CN3CCCC3)c1C)C(=O)N2)c1ccccc1 [II.48, (3Z)-3-[(3,5-dimethyl-4-{[(2R)-2-(pyrrolidin-1-ylmethyl)pyrrolidin-1-yl]carbonyl}-1H-pyrrol-2-yl)methylene]-2-oxo-N-[(1R)-1-phenylpropyl]indoline-5-carboxamide] | 5.84 | 6.22 | 6.00 to 7.00 | < 5.00 |  | 5.97 | 6.00 to 7.00 |
| Cc1cccc(C(C)NC(=O)c2ccc3c(c2)/C(=C/c2[nH]c(C)c(C(=O)N4CCN(C)CC4)c2C)C(=O)N3)c1 (stereo not shown) [II.51, (3Z)-3-({3,5-dimethyl-4-[(4-methylpiperazin-1-yl)carbonyl]-1H-pyrrol-2-yl}methylene)-N-[1-(3-methylphenyl)ethyl]-2-oxoindoline-5-carboxamide] | 5.95 | 5.87 | 5.00 to 5.70 | 5.48 | 252 | 5.71 |  |
| CC[C@@H](NC(=O)c1ccc2c(c1)/C(=C/c1[nH]c(C)c(C(=O)N3CCC(N4CCN(C)CC4)CC3)c1C)C(=O)N2)c1ccccc1 [II.53, (3Z)-3-[(3,5-dimethyl-4-{[4-(4-methylpiperazin-1-yl)piperidin-1-yl]carbonyl}-1H-pyrrol-2-yl)methylene]-2-oxo-N-[(1R)-1-phenylpropyl]indoline-5-carboxamide] | 5.89 | 5.94 | 6.00 to 7.00 | < 5.00 |  | 5.81 | 6.00 to 7.00 |
| Cc1[nH]c(/C=C2\C(=O)Nc3ccc(C(=O)N[C@H](C)c4cccc(Cl)c4)cc32)c(C)c1C(=O)N1CCCCC1 [II.55, (3Z)-N-[(1R)-1-(3-chlorophenyl)ethyl]-3-{[3,5-dimethyl-4-(piperidin-1-ylcarbonyl)-1H-pyrrol-2-yl]methylene}-2-oxoindoline-5-carboxamide] | 6.10 | 6.07 | 6.00 to 7.00 | 5.85 |  | 5.96 | 6.00 to 7.00 |
| Cc1[nH]c(/C=C2\C(=O)Nc3ccc(C(=O)N[C@H](C)c4ccc(Cl)cc4)cc32)c(C)c1C(=O)N1CCCC1 [II.67, (3Z)-N-[(1R)-1-(4-chlorophenyl)ethyl]-3-{[3,5-dimethyl-4-(pyrrolidin-1-ylcarbonyl)-1H-pyrrol-2-yl]methylene}-2-oxoindoline-5-carboxamide] | 5.83 | 5.82 | 6.00 to 7.00 | 5.40 | 159 | 5.71 |  |
| CC[C@@H](NC(=O)c1ccc2c(c1)/C(=C/c1[nH]c(C)c(CCC(=O)O)c1C)C(=O)N2)c1ccccc1 [II.130, (3Z)-3-{2,4-dimethyl-5-[2-oxo-5-(1R)-(1-phenyl-propylcarbamoyl)-1,2-dihydro-indol-3-ylidenemethyl]-1H-pyrrol-3-yl}-propionic acid] | 5.80 | < 5.00 | 6.00 to 7.00 | < 5.00 | 103 | 5.07 |  |
| CC[C@@H](NC(=O)c1ccc2c(c1)/C(=C/c1[nH]c(C)c(CCC(=O)NCCN(CC)CC)c1C)C(=O)N2)c1ccccc1 [II.131, (3Z)-3-{4-[2-(2-diethylamino-ethylcarbamoyl)-ethyl]-3,5-dimethyl-1H-pyrrol-2-ylmethylene}-2-oxo-2,3-dihydro-1H-indole-5-carboxylic acid (1-phenyl-propyl)-amide] | 5.83 | < 5.00 | 6.00 to 7.00 | < 5.00 | 134 | 5.46 |  |
